EP4810052A2, “HCRHR2 SELECTIVE POLYPEPTIDES” (Gubra A/S, priority 2023, dated 2026)
Marks after values point to notes of the source that are not given here. Starred links: 1 amine or outer side, 2 acyl side, 3 side chain; linkers in the order of their positions; H or OH if unused. Residues, ends and D or L forms follow the SMILES beside them. Groups on a side chain read outwards from the residue. *: point of attachment. C20 diacid = O=C(O)CCCCCCCCCCCCCCCCCCC(=O)*; γGlu = O=C(O)[C@H](CCC(=O)[*:2])N[*:1]; AEEA = NCCOCCOCC(=O)O

Assays:
[1] = Body mass and body fat content in mouse model of diet-induced obesity (DIO); format: in vivo; details: DIO mice
Method: SEQ ID NO: 3, SEQ ID NO: 6, SEQ ID NO: 238, SEQ ID NO: 16 and SEQ ID NO: 215 were assessed for their ability to reduce body mass and body fat content in a mouse model of diet-induced obesity (DIO).
Male C57BL/6JRj mice were obtained from JanVier (JanVier Labs, France) at 5 weeks of age. The animals were group-housed during obesity induction and then single housed 2 weeks prior to study start. They were housed under a 12/12 h dark-light cycle, light off at 3 PM. Room temperature was controlled to 22°C ± 1°C, with 60 % ± 20% humidity. For 22-23 weeks prior to treatment start and throughout the study, the animals had ad libitum access to high-fat diet (60% kcal fat, D12492, Research Diets) and tap water.
The animals were randomized according to lean mass (EchoMRI) and body weight. Animals were dosed subcutaneously […] for 30-32 days. In study 1, the animals were dosed with vehicle or SEQ ID NO: 3 (10, 30, 60 or 100 nmol/kg). In study 2, the animals were dosed with vehicle or SEQ ID NO: 6 (10 or 30 nmol/kg), SEQ ID NO: 238 (10 or 30 nmol/kg), SEQ ID NO: 16 (10 or 30 nmol/kg), SEQ ID NO: 215 (10 or 30 nmol/kg) or SEQ ID NO: 3 (30 nmol/kg).
Body weight and food intake were recorded daily until day 28 and body composition evaluated on day 26 using EchoMRI. At termination, blood for HbA1c analyses were collected and M. gastrocnemius and M. soleus were weighed.
Statistical significance was evaluated using One-way analysis of variance with Dunnett's multiple comparison test. P < 0.05 was considered statistically significant.

hCRHR2b = biological target: T1, hCRHR2b (Homo sapiens, UniProt Q13324); assay: cAMP potency, transiently transfected CHO-K1 cells, hCRHR2b; format: cell-based; details: transiently transfected CHO-K1, average n=3; read-out: Transient cell system EC50 (nM) hCRHR 2b
T1 construct: DYK (FLAG); host or cells: CHO-K1, transiently transfected
T1 sequence (Q13324 1-438 isoform Q13324-2): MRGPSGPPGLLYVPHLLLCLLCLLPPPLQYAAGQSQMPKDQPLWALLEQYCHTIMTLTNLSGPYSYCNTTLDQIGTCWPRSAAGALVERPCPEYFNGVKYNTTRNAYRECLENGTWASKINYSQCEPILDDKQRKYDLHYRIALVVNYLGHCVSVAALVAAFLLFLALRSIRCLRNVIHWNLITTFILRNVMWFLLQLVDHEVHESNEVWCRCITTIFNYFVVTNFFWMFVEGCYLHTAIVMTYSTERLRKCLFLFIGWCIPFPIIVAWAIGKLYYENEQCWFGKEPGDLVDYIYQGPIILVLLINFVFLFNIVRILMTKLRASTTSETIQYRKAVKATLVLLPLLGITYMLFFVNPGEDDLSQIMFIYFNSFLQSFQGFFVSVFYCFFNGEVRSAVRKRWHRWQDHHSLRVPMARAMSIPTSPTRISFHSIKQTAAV

pCRHR2 = assay: cAMP potency, transiently transfected CHO-K1 cells, pCRHR2; format: cell-based, pig; details: transiently transfected CHO-K1, average n=3; read-out: Transient cell system EC50 (nM) pCR HR2
Method: (§1) Selected peptides were tested for potency on different species (mouse, rat, porcine) using transiently transfected CHO-K1 cells using the general procedure.

rCRHR2 = biological target: T2, rCRHR2 (Rattus norvegicus, UniProt P47866); assay: cAMP potency, transiently transfected CHO-K1 cells, rCRHR2; format: cell-based; details: transiently transfected CHO-K1, average n=3; read-out: Transient cell system EC50 (nM) rCRHR 2
T2 construct: DYK (FLAG); host or cells: CHO-K1, transiently transfected
Method: as §1

hCRHR2a = biological target: T3, hCRHR2a (Homo sapiens, UniProt Q13324); assay: cAMP potency, transiently transfected CHO-K1 cells, hCRHR2a; format: cell-based; details: transiently transfected CHO-K1, average n=3; read-out: Transient cell system EC50 (nM) hCRHR 2a
T3 construct: DYK (FLAG); host or cells: CHO-K1, transiently transfected
T3 sequence (Q13324 1-411): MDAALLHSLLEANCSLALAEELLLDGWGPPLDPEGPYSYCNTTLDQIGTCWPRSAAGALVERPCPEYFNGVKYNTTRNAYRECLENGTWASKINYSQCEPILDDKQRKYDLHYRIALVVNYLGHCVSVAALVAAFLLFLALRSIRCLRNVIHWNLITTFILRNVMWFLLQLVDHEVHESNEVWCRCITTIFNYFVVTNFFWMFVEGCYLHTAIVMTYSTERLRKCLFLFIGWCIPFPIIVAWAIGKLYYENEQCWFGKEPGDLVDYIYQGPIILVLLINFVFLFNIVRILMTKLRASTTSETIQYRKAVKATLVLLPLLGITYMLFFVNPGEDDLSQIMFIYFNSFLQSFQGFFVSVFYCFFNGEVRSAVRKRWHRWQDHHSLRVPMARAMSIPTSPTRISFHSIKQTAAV

[2] = Table 16 study, 10 nmol/kg, ± SEM
[3] = Table 16 study, 30 nmol/kg, ± SEM
[4] = Table 16 study, 60 nmol/kg, ± SEM
[5] = Table 16 study, 100 nmol/kg, ± SEM
[6] = Table 17 study, 30 nmol/kg, ± SEM

T2 sequence (P47866 whole entry): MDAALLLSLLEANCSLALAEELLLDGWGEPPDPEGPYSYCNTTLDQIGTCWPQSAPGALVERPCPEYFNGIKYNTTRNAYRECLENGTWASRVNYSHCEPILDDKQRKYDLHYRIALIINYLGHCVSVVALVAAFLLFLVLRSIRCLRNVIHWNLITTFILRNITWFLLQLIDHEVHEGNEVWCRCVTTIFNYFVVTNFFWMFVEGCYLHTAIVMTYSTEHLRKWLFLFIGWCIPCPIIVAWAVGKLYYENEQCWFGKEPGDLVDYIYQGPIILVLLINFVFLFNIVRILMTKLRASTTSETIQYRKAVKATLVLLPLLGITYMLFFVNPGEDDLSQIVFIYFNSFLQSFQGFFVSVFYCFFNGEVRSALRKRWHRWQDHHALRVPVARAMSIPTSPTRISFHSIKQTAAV

CC[C@H](C)[C@H](N)C(=O)N[C@H](C(=O)N[C@@H](CC(C)C)C(=O)N[C@@H](CO)C(=O)N[C@@H](CC(C)C)C(=O)N[C@@H](CC(=O)O)C(=O)N[C@H](C(=O)N1CCC[C@H]1C(=O)N[C@H](C(=O)NCC(=O)N[C@@H](CC(C)C)C(=O)N[C@@H](CC(C)C)C(=O)N[C@@H](CCC(N)=O)C(=O)N[C@H](C(=O)N[C@@H](CC(C)C)C(=O)N[C@@H](CC(C)C)C(=O)N[C@@H](CCC(=O)O)C(=O)N[C@@H](CCC(N)=O)C(=O)N[C@@H](C)C(=O)N[C@@H](CCCNC(=N)N)C(=O)N[C@@H](C)C(=O)N[C@@H](CCCNC(=N)N)C(=O)N[C@@H](C)C(=O)N[C@@H](C)C(=O)N[C@@H](CCCNC(=N)N)C(=O)N[C@@H](CCC(=O)O)C(=O)N[C@@H](CCC(N)=O)C(=O)N[C@@H](C)C(=O)N[C@@H](CCCCNC(=O)COCCOCCNC(=O)COCCOCCNC(=O)CC[C@H](NC(=O)CC[C@H](NC(=O)CCCCCCCCCCCCCCCCCCC(=O)O)C(=O)O)C(=O)O)C(=O)N[C@H](C(=O)N[C@@H](CC(N)=O)C(=O)N[C@@H](C)C(=O)N[C@@H](CCC(=O)O)C(=O)N[C@H](C(=O)N[C@@H](CC(C)C)C(=O)N[C@@H](C)C(=O)N[C@@H](CCC(=O)O)C(=O)N[C@H](C(N)=O)C(C)C)[C@@H](C)CC)[C@@H](C)O)[C@@H](C)CC)[C@@H](C)CC)C(C)C)C(C)C [SEQ ID NO: 3] (H-IVLSLDVPIGLLQILLEQARARAAREQAK([AEEA-AEEA-γGlu-γGlu-C20 diacid])TNAEILAEV-NH2)
relative body weight ([1]; 28 days, compared to vehicle): prolonged dose-dependent reduction | Blood HbA1c ([1]; Table 16 study, 10 nmol/kg): 4.3 ± 0.1% | M. Gastrocnemius ([1]; Table 16 study, 10 nmol/kg): 0.17 ± 0.005 g | M. Soleus ([1]; Table 16 study, 10 nmol/kg): 0.011 ± 0.0005 g | BW at termination [1, 2]: 41.9 ± 1.5 g | Fat mass change from baseline [1, 2]: -7.7 ± 0.7 g | Lean mass change from baseline [1, 2]: 1.4 ± 0.3 g | Relative body weight change at termination [1, 2]: 94.3 ± 1.6 % | Blood HbA1c ([1]; Table 16 study, 30 nmol/kg): 4.1 ± 0.1 % | M. Gastrocnemius ([1]; Table 16 study, 30 nmol/kg): 0.17 ± 0.003 g | M. Soleus ([1]; Table 16 study, 30 nmol/kg): 0.012 ± 0.0005 g | BW at termination [1, 3]: 38.2 ± 1.0 g | Fat mass change from baseline [1, 3]: -10.2 ± 0.6 g | Lean mass change from baseline [1, 3]: 0.4 ± 0.4 g | Relative body weight change at termination [1, 3]: 89.0 ± 2.2 % | Blood HbA1c ([1]; Table 16 study, 60 nmol/kg): 4.15 ± 0.1 % | M. Gastrocnemius ([1]; Table 16 study, 60 nmol/kg): 0.16 ± 0.004 g | M. Soleus ([1]; Table 16 study, 60 nmol/kg): 0.012 ± 0.0004 g | BW at termination [1, 4]: 38.5 ± 0.6 g | Fat mass change from baseline [1, 4]: -10.8 ± 0.6 g | Lean mass change from baseline [1, 4]: 0.8 ± 0.3 g | Relative body weight change at termination [1, 4]: 89.9 ± 1.9 % | Blood HbA1c ([1]; Table 16 study, 100 nmol/kg): 4.1 ± 0.1 % | M. Gastrocnemius ([1]; Table 16 study, 100 nmol/kg): 0.17 ± 0.003 g | M. Soleus ([1]; Table 16 study, 100 nmol/kg): 0.011 ± 0.0006 g | BW at termination [1, 5]: 37.3 ± 0.6 g | Fat mass change from baseline [1, 5]: -11.2 ± 0.6 g | Lean mass change from baseline [1, 5]: 0.8 ± 0.2 g | Relative body weight change at termination [1, 5]: 87.7 ± 1.3 % | Blood HbA1c ([1]; Table 17 study, 30 nmol/kg): 4.2 ± 0.1 % | M. Gastrocnemius ([1]; Table 17 study, 30 nmol/kg): 0.19 ± 0.003* * g | M. Soleus ([1]; Table 17 study, 30 nmol/kg): 0.013 ± 0.0006 g | Body weight at termination [1, 6]: 39.3 ± 0.9 g | Fat mass change from baseline [1, 6]: -9.5 ± 0.6 g | Lean mass change from baseline [1, 6]: -0.2 ± 0.2 g | Relative body weight change at termination [1, 6]: 82.4 ± 1.6 % | EC50 (hCRHR2b): 0.0081 nM | EC50 (pCRHR2): 0.027 nM | EC50 (rCRHR2): 0.07 nM | EC50 (hCRHR2a): 0.016 nM
